Measurements from ChEMBL document CHEMBL5441381, “ASAP - In vitro antiviral effect” (2024).
Where “and” joins values, the source holds several entries; their conditions need not be identical. Identical values can stand only once.

Tests used:
SARS-CoV-2 [1] = assay: (§1) Functional immunofluorescence assay to measure dose dependent changes in antiviral-drug inhibitory efficacy against hCoV-19/USA-WA1/2020 in HeLa-ACE2 cells which are seeded prior to drug treatment, then infected with hCoV-19/USA-WA1/2020. Cells are fixed with 10 % formaldehyde, washed with PBS, permeabilized with permeabilization buffer, then washed with wash buffer. The cells are incubated with nucleoprotein primary antibody IC7C7. Following primary staining, cells are washed with wash buffer and incubated in a solution of with Alexa fluor 488 and DAPI. Infected and uninfected cells are visualized and analyzed by Gen5 software. The assay has been performed by Icahn School of Medicine at Mount Sinai.; assay type: organism-based, Homo sapiens
SARS-CoV-2 [2] = assay: as §1, with “iPSC-Pneumocyte” for “HeLa-ACE2”, “to” for “to drug”; assay type: organism-based, Homo sapiens
[3] = Severe acute respiratory syndrome coronavirus 2, HeLa-ACE2
[4] = Severe acute respiratory syndrome coronavirus 2, Pneumocyte

In the case of `Cc1ncc(-c2cc3c(N[C@@H](c4ccc5c(c4)OCCO5)C(C)C)ncnc3[nH]2)cn1`, the EC50 (SARS-CoV-2 [1]; [3]) is reported as 4.51 µM, the EC90 (SARS-CoV-2 [1]; Severe acute respiratory syndrome coronavirus 2, HeLa-ACE2, Baseline response 0 %, Hill slope -0.659, Maximum measured 95.537 %, Maximum response 100 %, Minimum measured 29.329 %, R squared 0.973) is reported as greater than 20 µM and the EC90 (SARS-CoV-2 [1]; Severe acute respiratory syndrome coronavirus 2, HeLa-ACE2, Baseline response 0 %, Hill slope -1.195, Maximum measured 100.014 %, Maximum response 100 %, Minimum measured 14.25 %, R squared 0.982) is reported as greater than 20 µM. The EC50 (SARS-CoV-2 [1]; hela-ace2) was 4.51 µM, the EC50 (SARS-CoV-2 [2]; [4]) was 15.7 µM and the EC90 (SARS-CoV-2 [2]; Severe acute respiratory syndrome coronavirus 2, Pneumocyte, Baseline response 0 %, EC90 CI (lower) 1.051 uM, EC90 CI (upper) 45.178 uM, Hill slope -2.659, Maximum measured 160.084 %, Maximum response 100 %, Minimum measured 9.251 %, R squared 0.626) was 36 µM.

`CNC(=O)c1cc2c(N[C@@H](c3ccc4c(c3)OCCO4)C(C)C)ncnc2[nH]1` gave an EC50 (SARS-CoV-2 [1]; [3]) greater than 50 µM, an EC90 (SARS-CoV-2 [1]; Severe acute respiratory syndrome coronavirus 2, HeLa-ACE2, Baseline response 0 %, Hill slope -1.825, Maximum measured 114.293 %, Maximum response 100 %, Minimum measured 64.264 %, R squared 0.688) greater than 50 µM and an EC50 (SARS-CoV-2 [2]; [4]) greater than 50 µM. It also gave an EC90 (SARS-CoV-2 [2]; Severe acute respiratory syndrome coronavirus 2, Pneumocyte, Maximum measured 153.61 %, Minimum measured 91.144 %) greater than 50 µM.

For `CC(C)[C@@H](Nc1ncnc2[nH]c(-c3cnn(C)c3)cc12)c1ccc2c(c1)S(=O)(=O)CCC2`, the EC50 (SARS-CoV-2 [1]; [3]) was greater than 20 µM, the EC90 (SARS-CoV-2 [1]; Severe acute respiratory syndrome coronavirus 2, HeLa-ACE2, Baseline response 0 %, Hill slope -10.363, Maximum measured 119.22 %, Maximum response 100 %, Minimum measured 72.714 %, R squared 0.37) was greater than 20 µM and the EC50 (SARS-CoV-2 [2]; [4]) was 7.59 µM. It also gave an EC90 (SARS-CoV-2 [2]; Severe acute respiratory syndrome coronavirus 2, Pneumocyte, Baseline response 0 %, Hill slope -0.905, Maximum measured 103.795 %, Maximum response 100 %, Minimum measured 0.206 %, R squared 0.828) greater than 50 µM.

`CC(C)[C@@H](Nc1ncnc2[nH]c(-c3cnn(C)n3)cc12)c1ccc2c(c1)OCCO2` showed an EC50 (SARS-CoV-2 [1]; [3]) of 5.33 µM, an EC90 (SARS-CoV-2 [1]; Severe acute respiratory syndrome coronavirus 2, HeLa-ACE2, Baseline response 0 %, Hill slope -0.7, Maximum measured 92.76 %, Maximum response 100 %, Minimum measured 27.109 %, R squared 0.91) greater than 20 µM and an EC90 (SARS-CoV-2 [1]; Severe acute respiratory syndrome coronavirus 2, HeLa-ACE2, Baseline response 0 %, Hill slope -0.882, Maximum measured 101.658 %, Maximum response 100 %, Minimum measured 24.481 %, R squared 0.934) greater than 20 µM. For the same molecule, the EC50 (SARS-CoV-2 [1]; hela-ace2) was 6.65 µM, the EC50 (SARS-CoV-2 [2]; [4]) was 13.3 µM and the EC90 (SARS-CoV-2 [2]; Severe acute respiratory syndrome coronavirus 2, Pneumocyte, Baseline response 0 %, EC90 CI (lower) 0.166 uM, EC90 CI (upper) 294.285 uM, Hill slope -3.414, Maximum measured 157.709 %, Maximum response 100 %, Minimum measured 4.934 %, R squared 0.471) was 25.3 µM.

`CNCc1cc(-c2cc3c(N[C@@H](c4ccc5c(c4)S(=O)(=O)NCC5)C(C)C)ncnc3[nH]2)co1` showed an EC50 (SARS-CoV-2 [1]; [3]) greater than 20 µM, an EC90 (SARS-CoV-2 [1]; Severe acute respiratory syndrome coronavirus 2, HeLa-ACE2, Baseline response 0 %, Hill slope -0.236, Maximum measured 99.818 %, Maximum response 100 %, Minimum measured 81.688 %, R squared 0.12) greater than 20 µM and an EC50 (SARS-CoV-2 [2]; [4]) of 30.7 µM. The EC90 (SARS-CoV-2 [2]; Severe acute respiratory syndrome coronavirus 2, Pneumocyte, Baseline response 0 %, Hill slope -1.273, Maximum measured 102.14 %, Maximum response 100 %, Minimum measured 30.967 %, R squared 0.783) was greater than 50 µM.

Molecule `CC(C)[C@@H](Nc1ncnc2[nH]c(-c3cnn(CC(N)=O)c3)cc12)c1ccc2c(c1)OCCO2` has an EC50 (SARS-CoV-2 [1]; [3]) greater than 50 µM, an EC90 (SARS-CoV-2 [1]; Severe acute respiratory syndrome coronavirus 2, HeLa-ACE2, Baseline response 0 %, Hill slope -10.038, Maximum measured 122.799 %, Maximum response 100 %, Minimum measured 73.654 %, R squared 0.191) greater than 50 µM and an EC50 (SARS-CoV-2 [2]; [4]) of 37.1 µM. The EC90 (SARS-CoV-2 [2]; Severe acute respiratory syndrome coronavirus 2, Pneumocyte, Baseline response 0 %, Hill slope -4.011, Maximum measured 96.462 %, Maximum response 100 %, Minimum measured 23.083 %, R squared 0.242) was greater than 50 µM.

For `CC(C)(C)[C@@H](Nc1ncnc2[nH]c(-c3cnn(CC(N)=O)c3)cc12)c1ccc2c(n1)OCCO2`, the EC50 (SARS-CoV-2 [1]; [3]) was greater than 20 µM, the EC90 (SARS-CoV-2 [1]; Severe acute respiratory syndrome coronavirus 2, HeLa-ACE2, Maximum measured 115.43 %, Minimum measured 93.464 %) was greater than 20 µM and the EC50 (SARS-CoV-2 [2]; [4]) was 11.4 µM. The EC90 (SARS-CoV-2 [2]; Severe acute respiratory syndrome coronavirus 2, Pneumocyte, Baseline response 0 %, Hill slope -0.772, Maximum measured 91.919 %, Maximum response 100 %, Minimum measured 11.328 %, R squared 0.786) was greater than 50 µM.

In the case of `CC(C)[C@@H](Nc1ncnc2[nH]c(-c3cnn(C)c3C#N)cc12)c1ccc2c(c1)OCCO2`, the EC90 (SARS-CoV-2 [1]; Baseline response 0 %, EC90 CI (lower) 0.491 uM, EC90 CI (upper) 1.004 uM, Hill slope -2.446, Maximum measured 109.522 %, Maximum response 100 %, Minimum measured 0 %, R squared 0.979) is reported as 4.23 µM, the EC50 (SARS-CoV-2 [1]; [3]) is reported as 1.73 µM and the EC90 (SARS-CoV-2 [1]; Severe acute respiratory syndrome coronavirus 2, HeLa-ACE2, Baseline response 0 %, EC90 CI (lower) 0.194 uM, EC90 CI (upper) 2.46 uM, Hill slope -2.403, Maximum measured 109.522 %, Maximum response 100 %, Minimum measured 3.811 %, R squared 0.7) is reported as 4.31 µM. The EC50 (SARS-CoV-2 [1]; hela-ace2) was 1.72 µM, the EC90 (SARS-CoV-2 [2]; Severe acute respiratory syndrome coronavirus 2, Pneumocyte, Baseline response 0 %, Hill slope -15.978, Maximum measured 108.15 %, Maximum response 100 %, Minimum measured 1.229 %, R squared 0.666) was 16.2 µM and the EC90 (SARS-CoV-2 [2]; Severe acute respiratory syndrome coronavirus 2, Pneumocyte, Baseline response 0 %, EC90 CI (lower) 0 uM, EC90 CI (upper) 0 uM, Hill slope -11.115, Maximum measured 116.315 %, Maximum response 100 %, Minimum measured 8.563 %, R squared 0.796) was 6.57 µM. For the same molecule, the EC50 (SARS-CoV-2 [2]; pneumocyte) was 14.1 µM and 5.39 µM.
